# In paper PMC13252604, “First Generation Proteolysis Targeting Chimeras (PROTACs) for the Treatment of Progeria” (Advanced Science, 2026):
# Molecular target: T1, ternary complex between progerin, compound 2 and CRBN (Mus musculus, UniProt P48678+Q8C7D2, DEL608-657)
# T1 construct: endogenous in cells; host or cells: Lmna G609G/G609G mouse fibroblasts
# Test: Co-immunoprecipitation of ternary complex (anti-CRBN IP, anti-progerin blot)
# Type: binding
# Settings: 5 µM, 6 h, Lmna^G609G/G609G fibroblasts
# Text: (A) Input IP .LM123L T-!=> V,!=>
# MW Veh Cpd 2 Cpd 2 Veh !!!!!"#$$#B -45665 T4--8 -4;?,;
# Progerin !!!!!E#)*+,- ,V4:-Ise::::: :etpoooomX,?4?V:enst9mmqo,848; !?#$B?CDEFCBG+I-+G.BLG+ […]
# !!!!!*+,- 84;66L<-,VI9e::::::esnnsmqmXV4-;VL<-,?:estm9XpoX?4T-?L<-,8 FFFFF0BNNB$ :em9Xn […]
# IgG heavy chain Iqep:m:p ne:qmppo:m :esmpqtmpn FFFFFSB#T89:I9em:m […]
# 50- Iqe9mt:: :eoX9ppnnm :eoqpq9s9p X9YF8=F>.-B2?E+FE??+E?@BBCA
# FFFFF0BNNB$ rrrFNBF:eqoqs
# Cpd 2 Veh FFFFFSB#T89:rrr […]
# Vehicle .LM123L T-!=>(%C" V,!=> […]
# 50- !!!!!C#' -4TT8VLamin C -4T:T; (%$$-4-:?5T '()*+
# !!!!!E#)*+,- ,V4:-β-Actin ,?4?V ,848; D(%
# 37- !!!!!*+,- 84;66L<-,V V4-;VL<-,? ?4T-?L<-,8 ,-)*+ […]
# Abundance Ratio (log2): Ve h / Cpd 2
# Supporting Figure S2. Ternary complex formation, progerin engagement and global selectivity of compound 2. (A) Progeroid […]/G609G fibroblasts treated with vehicle (0.1% DMSO) or compound 2 (5 µM) were subjected to immunoprecipitation with an anti-CRBN antibody and then immunoblotted with an anti-progerin antibody. Bar graph represents mean±sem of 2 independent experiments. (B) Representative progerin immunoblotting of the soluble fraction of LmnaG609G/G609G cell homogenates treated with […]
# Cells were harvested by trypsin, centrifuged and washed with PBS. […] The mixture was then allowed to incubate for 30min at 37 °C in the dark and samples were finally analysed by FACScalibur (Becton Dickinson) flow cytometer […]
# T1 sequence (P48678 with tags, fused parts or gaps DEL608-657 limits assumed): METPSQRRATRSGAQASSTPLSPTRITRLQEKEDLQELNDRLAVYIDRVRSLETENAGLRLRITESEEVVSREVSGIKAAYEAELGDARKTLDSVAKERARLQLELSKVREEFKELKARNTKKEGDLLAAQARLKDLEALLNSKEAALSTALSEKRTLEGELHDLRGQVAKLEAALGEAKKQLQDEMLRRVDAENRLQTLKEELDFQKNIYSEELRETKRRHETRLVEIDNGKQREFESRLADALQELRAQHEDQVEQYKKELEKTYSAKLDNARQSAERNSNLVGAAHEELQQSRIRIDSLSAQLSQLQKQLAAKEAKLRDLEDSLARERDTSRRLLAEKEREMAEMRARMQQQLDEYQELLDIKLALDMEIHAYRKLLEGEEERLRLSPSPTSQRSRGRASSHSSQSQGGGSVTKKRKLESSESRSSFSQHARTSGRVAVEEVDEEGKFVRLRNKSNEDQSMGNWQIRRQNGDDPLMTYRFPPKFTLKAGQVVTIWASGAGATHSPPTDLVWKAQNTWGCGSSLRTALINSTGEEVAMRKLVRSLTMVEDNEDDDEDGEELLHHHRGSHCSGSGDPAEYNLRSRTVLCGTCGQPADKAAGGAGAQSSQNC
# T1 sequence (Q8C7D2 whole entry, stated change not applied): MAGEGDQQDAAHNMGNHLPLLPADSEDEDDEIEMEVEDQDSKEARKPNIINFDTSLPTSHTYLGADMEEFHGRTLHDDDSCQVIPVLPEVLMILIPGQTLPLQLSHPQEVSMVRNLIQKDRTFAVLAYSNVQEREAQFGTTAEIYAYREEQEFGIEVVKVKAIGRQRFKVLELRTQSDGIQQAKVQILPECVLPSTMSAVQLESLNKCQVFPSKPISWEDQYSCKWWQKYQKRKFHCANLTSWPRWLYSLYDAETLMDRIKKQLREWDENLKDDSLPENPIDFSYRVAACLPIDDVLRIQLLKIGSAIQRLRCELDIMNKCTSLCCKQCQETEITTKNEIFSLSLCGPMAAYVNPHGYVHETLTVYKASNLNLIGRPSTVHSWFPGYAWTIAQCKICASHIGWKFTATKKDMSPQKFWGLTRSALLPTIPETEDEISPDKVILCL
# T1 sequence (Q3U1J4 whole entry partner): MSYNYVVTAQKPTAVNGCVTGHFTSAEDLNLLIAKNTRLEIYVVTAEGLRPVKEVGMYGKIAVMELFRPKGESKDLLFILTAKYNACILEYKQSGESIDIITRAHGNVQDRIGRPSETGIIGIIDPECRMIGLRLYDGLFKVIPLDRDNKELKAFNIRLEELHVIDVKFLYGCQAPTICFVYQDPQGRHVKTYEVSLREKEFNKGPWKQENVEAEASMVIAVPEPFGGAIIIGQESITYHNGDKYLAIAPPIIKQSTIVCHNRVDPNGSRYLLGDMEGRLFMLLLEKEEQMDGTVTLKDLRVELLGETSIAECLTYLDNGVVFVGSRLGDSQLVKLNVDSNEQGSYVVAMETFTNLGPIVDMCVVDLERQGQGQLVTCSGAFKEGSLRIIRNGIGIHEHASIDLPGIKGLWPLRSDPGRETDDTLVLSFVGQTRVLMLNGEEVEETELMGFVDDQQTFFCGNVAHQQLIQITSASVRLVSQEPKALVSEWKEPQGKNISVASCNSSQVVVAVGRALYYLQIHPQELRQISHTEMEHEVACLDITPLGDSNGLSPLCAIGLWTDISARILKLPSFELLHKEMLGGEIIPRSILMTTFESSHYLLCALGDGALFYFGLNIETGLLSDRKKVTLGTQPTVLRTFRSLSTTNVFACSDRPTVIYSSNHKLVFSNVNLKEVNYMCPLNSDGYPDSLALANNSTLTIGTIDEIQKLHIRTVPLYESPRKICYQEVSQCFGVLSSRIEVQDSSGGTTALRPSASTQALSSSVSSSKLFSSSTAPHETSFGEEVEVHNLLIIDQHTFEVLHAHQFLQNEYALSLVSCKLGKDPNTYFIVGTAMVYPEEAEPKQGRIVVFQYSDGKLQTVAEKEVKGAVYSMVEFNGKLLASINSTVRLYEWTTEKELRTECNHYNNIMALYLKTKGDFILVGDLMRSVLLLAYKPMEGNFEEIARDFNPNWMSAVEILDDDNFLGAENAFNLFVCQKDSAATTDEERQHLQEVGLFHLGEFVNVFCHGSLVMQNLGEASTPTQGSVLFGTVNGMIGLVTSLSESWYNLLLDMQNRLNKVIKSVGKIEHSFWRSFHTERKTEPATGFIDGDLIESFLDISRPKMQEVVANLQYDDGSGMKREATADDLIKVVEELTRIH
smiles,measurement,value
CC1(C)Oc2cc3oc(=O)ccc3cc2C[C@@H]1OC(=O)CCCCCNc1cccc2c1C(=O)N(C1CCC(=O)NC1=O)C2=O (stereo partly shown) [compound 2],formation of ternary complex with progerin and CRBN by immunoprecipitation,confirmed the formation of the ternary complex
